Consider two compounds from patent US20260199249A1, “SOLID ELACESTRANT DIHYDROCHLORIDE COMPOSITIONS, METHODS OF MAKING THE SAME, AND METHODS OF TREATMENT USING THE SAME” (BERLIN-CHEMIE AG, priority 2023, published 2026).

The structures appear in SMILES notation. “Also recorded” adds a separate entry of the source. Where a name gives a salt, the structure may show the parent alone.

The nature of data set [1]: Compressibility study (strain rate sensitivity). The data set is classed as physicochemical. The method, then: To investigate the behavior of elacestrant dihydrochloride under mechanical stress, a compressibility study was performed. […] Thus, deformation was expected to be affected by speed. Crushing strength was rather low at slow speed and decreased as speed increased due to elastic recovery. […] The insights and recommendations from this work led to careful selection of excipients to keep tablet strength high for tablets with drug loads above 25%.

The nature of data set [2]: Dissolution in media of pH 1.2, 2.0 (QC), 4.5 and 6.8 with f2 analysis. The data set is classed as physicochemical. Particulars: pH 6.8 (phosphate buffer); dihydrochloride. The method, then: Dissolution profiles for Formulation 2 at the target hardness (13.3 kP and 16.4 kP for 100 mg and 400 mg tablets, respectively), were generated using testing conditions that represented the physiological range of pH 1.2 (0.1 N HCl) to pH 6.8 (phosphate buffer), as well as in the QC medium (0.01 N HCl) and at pH 4.5 (acetate buffer). The dissolution profiles under these various conditions are shown in FIGS. 11A-D (100 mg tablets) and FIGS. 12A-D (400 mg tablets).
FIGS. 13A-D compare the dissolution profiles of the elacestrant dihydrochloride 100 mg drug product used in the Pivotal BE study under 4 different dissolution conditions. […] At the highest tested pH (pH 6.8) the solubility of the drug is so low that this test condition is not a reliable method for testing the dissolution of elacestrant dihydrochloride 100 mg tablets. The curves were compared using f2 analysis. […] Although the data at pH 6.8 also indicate the two curves are similar, the percent released was so low that this comparison was not of any value.

The nature of data set [3]: Physicochemical properties (Log P, pKa, solubility vs. pH) for PBPK model. From the text:
(§1) The physicochemical and biopharmaceutical properties for elacestrant dihydrochloride and its free base, elacestrant, were defined using a combination of in silico estimates from the ADMET Predictor® module that were based on the chemical structure, along with in vitro and in vivo data obtained from the literature and internal data. Table 5 summarizes the parameter values used for the elacestrant dihydrochloride […] pharmacokinetics (PBPK) model.
The solubility vs. pH profile is solved using conventional methods known to those in the art and using the measure pKa values for elacestrant (Table 5). The pHmax for elacestrant is 4.3. These values were used to model in vitro drug product dissolution. The in vivo solubility values of elacestrant dihydrochloride are calculated as a function of the volume administered and the food volume, where relevant.

The nature of data set [4]: Human blood-to-plasma ratio. The data set is classed as in vitro ADME. Conditions: blood and plasma, RAD1901-111, read-out: Human blood-to-plasma ratio, initial value.
From the text: as §1

Data set [5] in a line: Human effective jejunal permeability. Conditions: Caco-2, scaled from in vitro Caco2 data, read-out: Human effective jejunal permeability, initial value.
From the text: as §1
On the technique in general: Passage across Caco-2 layers is used to estimate intestinal permeability.

A short description of data set [6]: Exposure-response (ER) analysis for PFS. The data set is classed as in vivo, human. Particulars: non-parametric and parametric survival analysis.
In data set [7] the test system is ER-positive (ER+) HER2-negative (HER2−) breast cancer cells. Conditions: at concentrations inducing degradation of ERα protein; cited from earlier work.
The subject of data set [8] is ER+HER2-breast cancer models. Particulars: including models resistant to fulvestrant and CDK4/6 inhibitors and those harboring ESR1 mutations; cited from earlier work.

By solubility is commonly meant the concentration that dissolves in the medium under given conditions. What is called logP is the decadic logarithm of the partition coefficient of the neutral form, usually between octanol and water. The pKa is the negative logarithm of the acid dissociation constant.

The compound `CCNCCc1ccc(CN(CC)c2cc(OC)ccc2[C@@H]2CCc3cc(O)ccc3C2)cc1` [Elacestrant Dihydrochloride, (6R)-6-(2-(N-(4-(2-(ethylamino)ethyl)benzyl)-N-ethylamino)-4-methoxyphenyl)-5,6,7,8-tetrahydronaphthalen-2-ol dihydrochloride] yielded a strain rate sensitivity in data set [1] of 15.5%. Further, the solubility entry in data set [2] is “significantly lower; also recorded: so low”; in data set [3] (0.01 N HCl), “feely soluble”; in data set [3] (salt, pH = 4.3, read-out: Intrinsic solubility), 39.4 mg/mL. Besides, the logP in data set [3] was 5.56. Also, the pKa is 12 in data set [3] ((A)); 6.39 in data set [3] ((B), first); 7.74 in data set [3] ((B), second). Moreover, the blood plasma ratio in data set [4] worked out at 0.701. Further, the Papp in data set [5] worked out at 32 ×10⁻⁶ cm/s.

`CCNCCc1ccc(CN(CC)c2cc(OC)ccc2[C@@H]2CCc3cc(O)ccc3C2)cc1` [Elacestrant]: in data set [3], the pHmax is listed as 4.3. The solubility in data set [3] (free base, pH = 10, read-out: Intrinsic solubility) turned out to be 0.000115 mg/mL. Besides, the “exposure-response for PFS (progression-free survival)” value in data set [6] is recorded as “no differences in PFS across the observed range of elacestrant exposures”. The “17β-estradiol mediated cell proliferation” value in data set [7] was “inhibited 17β-estradiol mediated cell proliferation”. In data set [8], the antitumor activity result was “demonstrated in vitro and in vivo antitumor activity”.
